Laboratory results: PMC4835877, “HM71224, a novel Bruton’s tyrosine kinase inhibitor, suppresses B cell and monocyte activation and ameliorates arthritis in a mouse model: a potential drug for rheumatoid arthritis” (Arthritis Research & Therapy, 2016)

Assays:
BMX = target: T1, BMX (Homo sapiens, UniProt P51813); assay: FRET-based Z'-Lyte kinase assay; settings: read-out: Biochemical Inhibition, IC50
T1 construct: purchased ThermoFisher Scientific (contract research organization)
Text: (§1) To determine the biochemical selectivity of HM71224, we tested more than 85 kinases using the fluorescence resonance energy transfer (FRET) method.

CSK = target: T2, CSK (Homo sapiens, UniProt P41240); assay: FRET-based Z'-Lyte kinase assay; settings: read-out: Biochemical Inhibition, IC50
T2 construct: purchased ThermoFisher Scientific (contract research organization)
T2 sequence (P41240 whole entry): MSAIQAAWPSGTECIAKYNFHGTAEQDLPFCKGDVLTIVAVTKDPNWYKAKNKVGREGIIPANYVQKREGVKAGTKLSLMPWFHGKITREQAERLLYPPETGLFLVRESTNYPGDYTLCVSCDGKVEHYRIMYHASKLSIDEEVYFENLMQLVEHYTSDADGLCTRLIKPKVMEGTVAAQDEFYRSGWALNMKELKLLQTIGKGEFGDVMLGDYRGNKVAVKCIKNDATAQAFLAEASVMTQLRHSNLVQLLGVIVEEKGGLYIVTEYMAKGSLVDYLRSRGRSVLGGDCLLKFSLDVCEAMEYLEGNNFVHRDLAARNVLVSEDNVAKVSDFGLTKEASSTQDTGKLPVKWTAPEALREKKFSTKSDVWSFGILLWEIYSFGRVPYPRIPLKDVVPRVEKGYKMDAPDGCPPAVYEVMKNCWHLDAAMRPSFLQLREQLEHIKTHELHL
Text: as §1

ITK = target: T3, ITK (Homo sapiens, UniProt Q08881); assay: FRET-based Z'-Lyte kinase assay; settings: read-out: Biochemical Inhibition, IC50
T3 construct: purchased ThermoFisher Scientific (contract research organization)
T3 sequence (Q08881 whole entry): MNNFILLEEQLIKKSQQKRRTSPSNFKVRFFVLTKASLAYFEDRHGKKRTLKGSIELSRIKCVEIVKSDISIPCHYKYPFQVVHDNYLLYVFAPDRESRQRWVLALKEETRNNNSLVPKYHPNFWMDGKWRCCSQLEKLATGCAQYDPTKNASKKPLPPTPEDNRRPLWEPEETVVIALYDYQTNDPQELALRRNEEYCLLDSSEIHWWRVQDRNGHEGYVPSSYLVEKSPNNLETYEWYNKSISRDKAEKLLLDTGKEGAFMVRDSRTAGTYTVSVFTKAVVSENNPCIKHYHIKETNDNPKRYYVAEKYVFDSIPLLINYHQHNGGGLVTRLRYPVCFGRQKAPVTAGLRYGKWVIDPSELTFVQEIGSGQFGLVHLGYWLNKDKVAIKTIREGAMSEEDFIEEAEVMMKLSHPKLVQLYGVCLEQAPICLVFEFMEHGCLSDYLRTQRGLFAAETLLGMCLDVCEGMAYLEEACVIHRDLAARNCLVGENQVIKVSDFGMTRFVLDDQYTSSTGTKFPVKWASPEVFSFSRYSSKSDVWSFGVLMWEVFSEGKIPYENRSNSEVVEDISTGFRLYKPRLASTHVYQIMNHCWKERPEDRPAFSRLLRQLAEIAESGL
Text: as §1

LCK = target: T4, LCK (Homo sapiens, UniProt P06239); assay: FRET-based Z'-Lyte kinase assay; settings: read-out: Biochemical Inhibition, IC50
T4 construct: purchased ThermoFisher Scientific (contract research organization)
T4 sequence (P06239 whole entry): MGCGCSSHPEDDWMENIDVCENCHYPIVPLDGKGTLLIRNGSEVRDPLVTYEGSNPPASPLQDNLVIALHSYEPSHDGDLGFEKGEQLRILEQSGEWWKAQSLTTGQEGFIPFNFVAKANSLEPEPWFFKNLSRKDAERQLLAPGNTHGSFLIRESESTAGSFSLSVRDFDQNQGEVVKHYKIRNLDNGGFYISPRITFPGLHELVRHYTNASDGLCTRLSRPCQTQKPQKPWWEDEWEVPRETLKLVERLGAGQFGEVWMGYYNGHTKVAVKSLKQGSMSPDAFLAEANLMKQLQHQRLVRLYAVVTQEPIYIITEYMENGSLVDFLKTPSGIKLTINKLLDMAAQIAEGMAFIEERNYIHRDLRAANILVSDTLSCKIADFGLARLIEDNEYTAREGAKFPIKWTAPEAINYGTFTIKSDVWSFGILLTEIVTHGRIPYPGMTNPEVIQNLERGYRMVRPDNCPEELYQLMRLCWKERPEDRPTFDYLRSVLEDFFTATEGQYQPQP
Text: as §1

LYN = target: T5, LYN (Homo sapiens, UniProt P07948); assay: FRET-based Z'-Lyte kinase assay; settings: read-out: Biochemical Inhibition, IC50
T5 construct: purchased ThermoFisher Scientific (contract research organization)
T5 sequence (P07948 whole entry): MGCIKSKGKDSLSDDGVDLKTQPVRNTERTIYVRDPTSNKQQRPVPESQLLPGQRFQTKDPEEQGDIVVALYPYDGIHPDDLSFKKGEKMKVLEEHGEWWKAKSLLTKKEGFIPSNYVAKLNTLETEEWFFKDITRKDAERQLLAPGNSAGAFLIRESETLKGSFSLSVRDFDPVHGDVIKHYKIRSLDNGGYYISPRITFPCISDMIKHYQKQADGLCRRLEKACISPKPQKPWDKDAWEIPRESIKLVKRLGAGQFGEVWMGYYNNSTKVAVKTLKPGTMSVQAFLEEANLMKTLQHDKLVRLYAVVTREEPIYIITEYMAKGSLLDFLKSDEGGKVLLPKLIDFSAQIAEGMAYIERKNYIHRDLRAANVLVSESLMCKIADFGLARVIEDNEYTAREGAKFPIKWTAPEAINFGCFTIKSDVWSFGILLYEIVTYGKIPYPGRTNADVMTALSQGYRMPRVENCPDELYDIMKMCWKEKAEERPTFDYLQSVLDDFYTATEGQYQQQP
Text: as §1

TEC = target: T6, TEC (Homo sapiens, UniProt P42680); assay: FRET-based Z'-Lyte kinase assay; settings: read-out: Biochemical Inhibition, IC50
T6 construct: purchased ThermoFisher Scientific (contract research organization)
T6 sequence (P42680 whole entry): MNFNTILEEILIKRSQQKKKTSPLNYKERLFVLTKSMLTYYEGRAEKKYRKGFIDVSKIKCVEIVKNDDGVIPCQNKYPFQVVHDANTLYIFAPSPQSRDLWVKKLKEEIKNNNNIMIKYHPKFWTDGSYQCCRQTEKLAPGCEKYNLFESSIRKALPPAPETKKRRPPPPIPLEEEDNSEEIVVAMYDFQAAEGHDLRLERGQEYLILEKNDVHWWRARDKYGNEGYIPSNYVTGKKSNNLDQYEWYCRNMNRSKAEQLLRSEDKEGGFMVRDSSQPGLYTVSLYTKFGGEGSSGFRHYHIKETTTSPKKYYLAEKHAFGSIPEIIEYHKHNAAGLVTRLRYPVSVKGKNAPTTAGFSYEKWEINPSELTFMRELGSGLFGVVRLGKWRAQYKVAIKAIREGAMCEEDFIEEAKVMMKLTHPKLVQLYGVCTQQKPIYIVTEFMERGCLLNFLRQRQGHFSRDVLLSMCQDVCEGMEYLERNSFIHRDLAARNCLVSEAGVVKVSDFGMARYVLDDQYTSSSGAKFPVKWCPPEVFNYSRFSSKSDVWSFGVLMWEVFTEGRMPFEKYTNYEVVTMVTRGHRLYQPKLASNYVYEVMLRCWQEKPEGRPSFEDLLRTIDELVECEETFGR
Text: as §1

TXK = target: T7, TXK (Homo sapiens, UniProt P42681); assay: FRET-based Z'-Lyte kinase assay; settings: read-out: Biochemical Inhibition, IC50
T7 construct: purchased ThermoFisher Scientific (contract research organization)
T7 sequence (P42681 whole entry): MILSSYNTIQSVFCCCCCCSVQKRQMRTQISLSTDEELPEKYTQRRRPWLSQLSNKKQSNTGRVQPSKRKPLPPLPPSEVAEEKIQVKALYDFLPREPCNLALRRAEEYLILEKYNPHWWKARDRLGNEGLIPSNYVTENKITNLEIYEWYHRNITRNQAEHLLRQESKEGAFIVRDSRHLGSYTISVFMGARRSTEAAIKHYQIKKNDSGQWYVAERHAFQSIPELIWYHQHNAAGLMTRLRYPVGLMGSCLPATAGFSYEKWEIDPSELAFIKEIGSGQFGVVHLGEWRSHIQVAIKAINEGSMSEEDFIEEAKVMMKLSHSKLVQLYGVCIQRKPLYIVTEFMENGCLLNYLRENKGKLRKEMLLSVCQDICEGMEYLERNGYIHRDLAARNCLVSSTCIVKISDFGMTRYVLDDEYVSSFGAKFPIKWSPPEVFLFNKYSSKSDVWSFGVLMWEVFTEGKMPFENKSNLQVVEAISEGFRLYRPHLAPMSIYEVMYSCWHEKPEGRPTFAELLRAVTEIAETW
Text: as §1

YES = target: T8, YES (Homo sapiens, UniProt P07947); assay: FRET-based Z'-Lyte kinase assay; settings: read-out: Biochemical Inhibition, IC50
T8 construct: purchased ThermoFisher Scientific (contract research organization)
T8 sequence (P07947 whole entry): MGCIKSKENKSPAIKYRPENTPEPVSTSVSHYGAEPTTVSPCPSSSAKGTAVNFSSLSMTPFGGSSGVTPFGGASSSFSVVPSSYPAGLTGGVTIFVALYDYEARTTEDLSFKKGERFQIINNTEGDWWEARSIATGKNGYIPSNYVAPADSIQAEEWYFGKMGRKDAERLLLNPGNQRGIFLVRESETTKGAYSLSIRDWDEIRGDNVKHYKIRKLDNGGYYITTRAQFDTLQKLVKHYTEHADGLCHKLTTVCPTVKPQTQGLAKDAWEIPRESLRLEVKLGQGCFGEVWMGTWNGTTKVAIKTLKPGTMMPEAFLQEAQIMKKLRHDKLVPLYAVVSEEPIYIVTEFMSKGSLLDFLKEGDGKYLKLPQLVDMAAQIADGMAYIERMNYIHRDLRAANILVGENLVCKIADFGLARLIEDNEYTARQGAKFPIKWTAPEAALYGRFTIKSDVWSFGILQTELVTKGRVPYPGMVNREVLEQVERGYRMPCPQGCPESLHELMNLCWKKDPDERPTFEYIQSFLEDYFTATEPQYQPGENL
Text: as §1

[1] = test system: phosphorylation of Btk and PLCγ2 in primary human B cells; assay: BCR signaling in primary human B cells (immunoblot); format: cell-based; settings: BCR ligation
[2] = test system: DBA/1 J mice with collagen-induced arthritis; assay: Collagen-induced arthritis (CIA) model; format: in vivo, mouse
Method: All animal experimental protocols were approved by the animal care and use committee of the Hanmi Research Center, and performed in accordance with approved guidelines. Male DBA/1 J mice (9 weeks old; n = 7 per group) were immunized with an emulsion of Complete Freund’s Adjuvant and bovine type II collagen (CII) (total volume, 0.07 mL) via intradermal injection at the base of the tail (day 0). Three weeks later, the mice received a booster immunization comprising bovine CII emulsified in Incomplete Freund’s Adjuvant. […] The arthritis score and body weight were measured three times per week for 2 weeks after administration of the drugs (Additional file 1: Figure S1). The arthritis score was determined by grading each paw from 0 to 4 based on erythema, swelling, and flexion of the joint and was expressed as the sum of the scores of all four paws. Serum levels of IL-6 were measured by Luminex analysis in a bead-based immunoassay (EMD Millipore Corporation). Serum levels of anti-CII and total IgG were measured by ELISA (Chondrex, Seattle, WA, USA; Bethyl Laboratories, Montgomery, TX, USA).
Micro-CT of the hind limbs was performed using a Siemens Inveon Micro-CT/PET scanner (Siemens Medical Solutions, Knoxville, TN, USA).
The hind legs of each mouse were fixed with 10 % formalin, decalcified in 5 % formic acid, and embedded in paraffin. Sections were then cut and stained with hematoxylin and eosin (H&E). The bone erosion index was scored from 0 to 4 according to the following criteria: 0 = no erosion, 1 = mild (focal subchondral erosion), 2 = moderate (multiple subchondral erosions), 3 = high (as above and focal erosion of talus), and 4 = maximum (multiple erosions of tarsal and metatarsal bones).
Figure S1. Experiment design of collagen induced arthritis. Untreated DBA/1J mice (n=7) served as healthy controls (Ctrl). DBA/1J mice (n= 56) were immunized Day 0 and day 21. On day 10 after boosting (i.e. day 31), the induction of CIA was evaluated. […] Immunized mice (n=42) were divided into 6 groups (n=7 in each group). […] CIA, collagen induced arthritis.

T1 sequence (P51813 whole entry): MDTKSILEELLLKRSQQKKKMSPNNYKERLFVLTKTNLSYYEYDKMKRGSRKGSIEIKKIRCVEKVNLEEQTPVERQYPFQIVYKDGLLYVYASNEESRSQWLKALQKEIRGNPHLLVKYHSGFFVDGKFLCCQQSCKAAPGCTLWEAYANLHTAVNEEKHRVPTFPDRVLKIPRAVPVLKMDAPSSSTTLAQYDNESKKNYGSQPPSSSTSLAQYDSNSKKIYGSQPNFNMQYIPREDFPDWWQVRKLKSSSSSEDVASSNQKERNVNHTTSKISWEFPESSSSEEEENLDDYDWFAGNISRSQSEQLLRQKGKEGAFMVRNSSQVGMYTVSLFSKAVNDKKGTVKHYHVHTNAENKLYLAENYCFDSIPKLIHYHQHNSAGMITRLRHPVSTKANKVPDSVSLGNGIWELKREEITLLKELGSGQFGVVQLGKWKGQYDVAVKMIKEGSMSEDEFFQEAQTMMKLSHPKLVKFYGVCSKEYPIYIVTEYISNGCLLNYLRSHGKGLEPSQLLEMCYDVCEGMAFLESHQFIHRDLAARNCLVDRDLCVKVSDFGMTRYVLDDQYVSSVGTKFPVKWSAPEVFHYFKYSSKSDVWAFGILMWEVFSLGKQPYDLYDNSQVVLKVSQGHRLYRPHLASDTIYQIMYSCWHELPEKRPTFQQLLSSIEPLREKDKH

Work on `C=CC(=O)Nc1cccc(Oc2nc(Nc3ccc(N4CCN(C)CC4)cc3)nc3ccoc23)c1` [HM71224] yielded an IC50 (BMX) of 0.64 nM, an IC50 (CSK) of over 1000 nM and an IC50 (ITK) of 103 nM. The IC50 (LCK) was over 1000 nM, the IC50 (LYN) was over 1000 nM and the IC50 (TEC) was 4.57 nM. The IC50 (TXK) was 4.62 nM, the IC50 (YES) was 562 nM and the “Phosphorylation of Btk and PLCγ2” value [1] was “effectively inhibited”. The “Levels of circulating anti-collagen antibodies vs untreated group” value ([2]; CIA mice) was “significantly lower”, the “Serum IL-6 levels vs untreated group” value ([2]; CIA mice) was “significantly lower” and the “Total IgG level” value ([2]; CIA mice) was “tended to be lower”. The “Erosive bone changes and bone loss” value ([2]; CIA mice, H&E section) was “markedly reduced erosive bone changes and prevented bone loss”, the Weight loss ([2]; dose of 3 mg/kg or higher) was “prevented weight loss” and the “AS, arthritis score” value ([2]; oral 1mg/kg once a day, D0) was 1.1±0.7. For the same compound, the “Wt, weight” value ([2]; oral 1mg/kg once a day, D0) was 22.7±0.5 gram, the “AS, arthritis score” value ([2]; oral 1mg/kg once a day, D1) was 1.1±0.7 and the “Wt, weight” value ([2]; oral 1mg/kg once a day, D1) was 22.5±0.5 gram. For the same compound, the “AS, arthritis score” value ([2]; oral 1mg/kg once a day, D4) was 1.9±0.9, the “Wt, weight” value ([2]; oral 1mg/kg once a day, D4) was 22.2±0.6 gram and the “AS, arthritis score” value ([2]; oral 1mg/kg once a day, D6) was 2.1±1.1. For the same compound, the “Wt, weight” value ([2]; oral 1mg/kg once a day, D6) was 21.9±0.5 gram, the “AS, arthritis score” value ([2]; oral 1mg/kg once a day, D8) was 2.9±1.1 and the “Wt, weight” value ([2]; oral 1mg/kg once a day, D8) was 22.1±0.5 gram. The “AS, arthritis score” value ([2]; oral 1mg/kg once a day, D12) was 5.0±1.0, the “Wt, weight” value ([2]; oral 1mg/kg once a day, D12) was 21.6±0.5 gram and the “AS, arthritis score” value ([2]; oral 1mg/kg once a day, D13) was 6.6±0.7. For the same compound, the “Wt, weight” value ([2]; oral 1mg/kg once a day, D13) was 21.4±0.4 gram, the “AS, arthritis score” value ([2]; oral 1mg/kg once a day, D15) was 6.6±0.9 and the “Wt, weight” value ([2]; oral 1mg/kg once a day, D15) was 21.2±0.3 gram. The “AS, arthritis score” value ([2]; oral 3mg/kg once a day, D0) was 1.1±0.3, the “Wt, weight” value ([2]; oral 3mg/kg once a day, D0) was 22.7±0.4 gram and the “AS, arthritis score” value ([2]; oral 3mg/kg once a day, D1) was 1.3±0.7. For the same compound, the “Wt, weight” value ([2]; oral 3mg/kg once a day, D1) was 22.3±0.5 gram, the “AS, arthritis score” value ([2]; oral 3mg/kg once a day, D4) was 1.9±0.6 and the “Wt, weight” value ([2]; oral 3mg/kg once a day, D4) was 22.2±0.4 gram. For the same compound, the “AS, arthritis score” value ([2]; oral 3mg/kg once a day, D6) was 1.9±0.6, the “Wt, weight” value ([2]; oral 3mg/kg once a day, D6) was 22.4±0.4 gram and the “AS, arthritis score” value ([2]; oral 3mg/kg once a day, D8) was 2.0±0.7. For the same compound, the “Wt, weight” value ([2]; oral 3mg/kg once a day, D8) was 22.5±0.4 gram, the “AS, arthritis score” value ([2]; oral 3mg/kg once a day, D12) was 3.1±0.9 and the “Wt, weight” value ([2]; oral 3mg/kg once a day, D12) was 22.6±0.4 gram. For the same compound, the “AS, arthritis score” value ([2]; oral 3mg/kg once a day, D13) was 3.4±1.2, the “Wt, weight” value ([2]; oral 3mg/kg once a day, D13) was 22.6±0.4 gram and the “AS, arthritis score” value ([2]; oral 3mg/kg once a day, D15) was 3.4±1.4. The “Wt, weight” value ([2]; oral 3mg/kg once a day, D15) was 22.5±0.4 gram, the “AS, arthritis score” value ([2]; oral 10mg/kg once a day, D0) was 1.1±0.6 and the “Wt, weight” value ([2]; oral 10mg/kg once a day, D0) was 23.0±0.2 gram. For the same compound, the “AS, arthritis score” value ([2]; oral 10mg/kg once a day, D1) was 0.9±0.3, the “Wt, weight” value ([2]; oral 10mg/kg once a day, D1) was 22.8±0.3 gram and the “AS, arthritis score” value ([2]; oral 10mg/kg once a day, D4) was 0.4±0.2. For the same compound, the “Wt, weight” value ([2]; oral 10mg/kg once a day, D4) was 23.2±0.3 gram, the “AS, arthritis score” value ([2]; oral 10mg/kg once a day, D6) was 0.6±0.4 and the “Wt, weight” value ([2]; oral 10mg/kg once a day, D6) was 23.0±0.3 gram. The “AS, arthritis score” value ([2]; oral 10mg/kg once a day, D8) was 0.6±0.3, the “Wt, weight” value ([2]; oral 10mg/kg once a day, D8) was 23.2±0.3 gram and the “AS, arthritis score” value ([2]; oral 10mg/kg once a day, D12) was 1.0±0.4. The “Wt, weight” value ([2]; oral 10mg/kg once a day, D12) was 23.5±0.3 gram, the “AS, arthritis score” value ([2]; oral 10mg/kg once a day, D13) was 0.7±0.4 and the “Wt, weight” value ([2]; oral 10mg/kg once a day, D13) was 23.8±0.3 gram. For the same compound, the “AS, arthritis score” value ([2]; oral 10mg/kg once a day, D15) was 0.7±0.4, the “Wt, weight” value ([2]; oral 10mg/kg once a day, D15) was 23.9±0.3 gram and the “AS, arthritis score” value ([2]; oral 30mg/kg once a day, D0) was 1.1±0.5. For the same compound, the “Wt, weight” value ([2]; oral 30mg/kg once a day, D0) was 22.6±0.5 gram, the “AS, arthritis score” value ([2]; oral 30mg/kg once a day, D1) was 0.9±0.3 and the “Wt, weight” value ([2]; oral 30mg/kg once a day, D1) was 22.0±0.5 gram. For the same compound, the “AS, arthritis score” value ([2]; oral 30mg/kg once a day, D4) was 0.3±0.2, the “Wt, weight” value ([2]; oral 30mg/kg once a day, D4) was 22.1±0.4 gram and the “AS, arthritis score” value ([2]; oral 30mg/kg once a day, D6) was 0.3±0.2. The “Wt, weight” value ([2]; oral 30mg/kg once a day, D6) was 22.1±0.4 gram, the “AS, arthritis score” value ([2]; oral 30mg/kg once a day, D8) was 0.4±0.2 and the “Wt, weight” value ([2]; oral 30mg/kg once a day, D8) was 22.4±0.4 gram. For the same compound, the “AS, arthritis score” value ([2]; oral 30mg/kg once a day, D12) was 0.4±0.2, the “Wt, weight” value ([2]; oral 30mg/kg once a day, D12) was 22.5±0.4 gram and the “AS, arthritis score” value ([2]; oral 30mg/kg once a day, D13) was 0.4±0.3. For the same compound, the “Wt, weight” value ([2]; oral 30mg/kg once a day, D13) was 22.9±0.5 gram, the “AS, arthritis score” value ([2]; oral 30mg/kg once a day, D15) was 0.3±0.2 and the “Wt, weight” value ([2]; oral 30mg/kg once a day, D15) was 22.8±0.4 gram. The “Arthritis score vs untreated CIA mice” value ([2]; oral once a day for 2 weeks, P < 0.05 at 10 mg/kg, P < 0.01 at 30 mg/kg) was “lower arthritis scores than untreated CIA mice”.
